# Laboratory results published in US20090170762A1, “Treatment of Diabetes Related Obesity” (UUTech Limited, priority 2005, published 2009).
# Ends that are not written are not given here.
# How the values were obtained:
# [1] = test system: BRIN-BD11 cells; assay: Insulin secretion from BRIN-BD11 cells; assay type: cell-based
# Experimental: Tissue Culture. Chinese Hamster Lung (CHL) fibroblast cells stably transfected with the human GIP-R were cultured in DMEM tissue culture medium containing 10%. (v/v) fetal bovine serum, 1% (v/v) antibiotics (100 U/ml penicillin, 0.1 mg/ml streptomycin) (all from Gibco, Paisley, Strathclyde, Scotland). BRIN-BD11 cells were cultured in RPMI-1640 tissue culture medium containing 10% (v/v) fetal bovine serum, 1% (v/v) antibiotics (100 U/ml penicillin, 0.1 mg/ml streptomycin) and 11.1 mm glucose. The origin and secretory characteristics of these cells have been described in detail previously (McClenaghan, N. H. et al., 1996, Diabetes 45:1132-1140). The cells were maintained in sterile tissue culture flasks (Corning Glass Works, Sunderland, UK) at 37° C. in an atmosphere of 5% CO2 and 95% air using a LEEC incubator (Laboratory Technical Engineering, Nottingham, UK).
# Methods. Insulin release from BRIN-BD11 cells was determined by use of cell monolayers as described previously (Gault, V. A. et al. 2002, Biochem. J. 367:913-920). In brief, BRIN-BD11 cells were seeded into 24-well plates (Nunc, Roskilde, Denmark) at a density of 1.5×10^5 cells per well and allowed to attach overnight in RPMI-1640 culture medium at 37° C. Acute tests for insulin secretion were preceded by 40 minutes pre-incubation at 37° C. in 1.0 ml Krebs Ringer Bicarbonate Buffer (KRBB, 115 mm NaCl, 4.7 mm KCl, 1.28 mm CaCl2, 1.2 mM MgSO4, 1.2 mm KH2PO4, 25 mM HEPES and 10 mm NaHCO3; pH 7.4 with NaOH) supplemented with 0.1% (w/v) BSA and 1.1 mM glucose. […] After 20 minutes incubation, the buffer was removed and used for measurement of insulin by radioimmunoassay (Flatt, P. R. and Bailey, C. J., 1981, Diabetologia 5:573-577).
# [2] = test system: ob/ob mice; assay: 14 once-daily injections of GIP analogues in ob/ob mice; assay type: in vivo, mouse; settings: 14 days daily, insulin 50 U/kg
# Experimental: Animals. Obese diabetic (ob/ob) mice derived from the colony maintained at Aston University, UK (Bailey C. J. et al., 1982, Int. J. Obes. 6:11-21) were used at 14-18 weeks of age. Animals were age-matched, divided into groups and housed individually in an air-conditioned room at 22±2° C. with a 12 hour light: 12 hour dark cycle (08:00-20:00 hr). Drinking water and a standard rodent maintenance diet (Trouw Nutrition, Cheshire, UK) were freely available. All animal experiments were carried out in accordance with the UK Animals (Scientific Procedures) Act 1986.
# Methods. […] Intraperitoneal glucose tolerance (18 mmol/kg body wt) and insulin sensitivity (50 U/kg body wt) tests were performed at the end of the study period. Blood samples taken from the cut tip of the tail vein of conscious mice at the times indicated in the Figures were immediately centrifuged using a Beckman microcentrifuge (Beckman Instruments, UK) for 30 seconds at 13,000×g. The resulting plasma was then aliquoted into fresh Eppendorf tubes and stored at −20° C. prior to glucose and insulin determinations.
# [3] = test system: Swiss TO mice; assay: Daily (Pro3)GIP for 60 days in Swiss TO mice previously fed high fat diet for 160 days; assay type: in vivo, mouse; settings: high fat diet 160 days before, 25 nmoles/kg/day i.p. 60 days
# Experimental: Parameters were measured at 3-4 daily intervals during a 60 day treatment period, which was preceded by a 160 days of feeding high fat diet. Mice were initially recruited into the study at 6-8 weeks of age. Control animals received standard rodent maintenance diet, 12.99 kj/g, (Harlan, UK) ad libitum. The animals were maintained on the respective diet for the duration of the study. High fat diet comprised 45% fat, 20% protein and 35% carbohydrate (26.15 kj/g) and was available ad libitum. (Special Diet Services, Essex, UK).
# The results are shown in FIGS. 15A-B, which are a set of line graphs. Normal mice were fed the high fat diet indicated above ad libitum from 6-8 weeks of age. Treated groups of mice received intraperitoneal injection of ProGIP (25 nmoles/kg body weight) each day for a further 60 days while receiving the same high fat diet.
sequence,measurement,setting,value
YAPGTFISDYSIAMDKIHQQDFVNWLLAQKGKKNDWKHNITQ [(Pro^3)GIP],Maximal insulin response (% GIP max),"[1]; BRIN-BD11 cells, 5.6 mm glucose, 20 min",53 ± 5 % GIP max
same,Insulin response in presence of 10^-7 M GIP (% GIP max),"[1]; BRIN-BD11 cells, 5.6 mm glucose, in presence of 10^-7 M native GIP",64 ± 2 % GIP max
same,effect on GIP-stimulated insulin secretion,[1]; in presence of GIP (10^-7 m),significantly inhibited
same,hypoglycemic action of insulin,[2],significantly augmented
same,body weight,[3],promotes body weight loss
same,energy intake,[3],not associated with significant decrease in energy intake
